# Data published in PubChem BioAssay (NCI).
#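 The compound was tested at five concentrations on cells cultured in 96-well plates, with a 48-hour exposure period. GI50: concentration for 50% inhibition of growth. The concentration for full growth arrest is given as TGI.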
# Tests used:
# Assay in all cases: growth of human tumour cells (NCI), 48 h
# MOLT-4 leukemia = system: MOLT-4 leukemia
# NCI/ADR-RES ovarian = system: NCI/ADR-RES ovarian
# SNB-75 CNS = system: SNB-75 CNS
# UACC-62 melanoma = system: UACC-62 melanoma
# COLO 205 colon = system: COLO 205 colon
# A549 NSCLC = system: A549 NSCLC
# UACC-257 melanoma = system: UACC-257 melanoma
# UO-31 renal = system: UO-31 renal
# EKVX NSCLC = system: EKVX NSCLC
# MCF7 breast = system: MCF7 breast
# HOP-92 NSCLC = system: HOP-92 NSCLC
# OVCAR-8 ovarian = system: OVCAR-8 ovarian
# CCRF-CEM leukemia = system: CCRF-CEM leukemia
# SN12C renal = system: SN12C renal
# BT-549 breast = system: BT-549 breast
# 786-0 renal = system: 786-0 renal
# DU-145 prostate = system: DU-145 prostate
# PC-3 prostate = system: PC-3 prostate
# SK-OV-3 ovarian = system: SK-OV-3 ovarian
# M14 melanoma = system: M14 melanoma
# CAKI-1 renal = system: CAKI-1 renal
# T-47D breast = system: T-47D breast
# HCT-15 colon = system: HCT-15 colon
# IGROV1 ovarian = system: IGROV1 ovarian
# SK-MEL-2 melanoma = system: SK-MEL-2 melanoma
# RXF 393 renal = system: RXF 393 renal
# SF-539 CNS = system: SF-539 CNS
# HS 578T breast = system: HS 578T breast
# MDA-MB-231 breast = system: MDA-MB-231 breast
# TK-10 renal = system: TK-10 renal
# KM12 colon = system: KM12 colon
# NCI-H23 lung = system: NCI-H23 lung
# SK-MEL-28 melanoma = system: SK-MEL-28 melanoma
# ACHN renal = system: ACHN renal
# LOX IMVI melanoma = system: LOX IMVI melanoma
# HOP-62 NSCLC = system: HOP-62 NSCLC
# OVCAR-5 ovarian = system: OVCAR-5 ovarian
# A498 renal = system: A498 renal
# RPMI-8226 leukemia = system: RPMI-8226 leukemia
# SF-268 CNS = system: SF-268 CNS
# MDA-MB-435 = system: MDA-MB-435
# OVCAR-4 ovarian = system: OVCAR-4 ovarian
# NCI-H522 lung = system: NCI-H522 lung
# HCC-2998 colon = system: HCC-2998 colon
# SK-MEL-5 melanoma = system: SK-MEL-5 melanoma
# SNB-19 CNS = system: SNB-19 CNS
# OVCAR-3 ovarian = system: OVCAR-3 ovarian
# HL-60(TB) leukemia = system: HL-60(TB) leukemia
# NCI-H460 lung = system: NCI-H460 lung
# K-562 leukemia = system: K-562 leukemia
# NCI-H226 lung = system: NCI-H226 lung
# MDA-MB-468 breast = system: MDA-MB-468 breast
# HCT-116 colon = system: HCT-116 colon
# SW-620 colon = system: SW-620 colon
# MALME-3M melanoma = system: MALME-3M melanoma
# SF-295 CNS = system: SF-295 CNS
# U251 CNS = system: U251 CNS
structure (smiles),measurement,setting,value
COc1ccc(C(=O)/C=C/c2cc(F)cc(C(F)(F)F)c2)cc1S(N)(=O)=O,GI50,MOLT-4 leukemia,2.44 µM
same,TGI,MOLT-4 leukemia,9.1 µM
same,GI50,NCI/ADR-RES ovarian,2.16 µM
same,TGI,NCI/ADR-RES ovarian,5.44 µM
same,GI50,SNB-75 CNS,2.45 µM
same,TGI,SNB-75 CNS,13.2 µM
same,GI50,UACC-62 melanoma,3.28 µM
same,TGI,UACC-62 melanoma,13.6 µM
same,GI50,COLO 205 colon,3.79 µM
same,TGI,COLO 205 colon,13.2 µM
same,GI50,A549 NSCLC,4.3 µM
same,TGI,A549 NSCLC,23.1 µM
same,GI50,UACC-257 melanoma,11.3 µM
same,TGI,UACC-257 melanoma,25.8 µM
same,GI50,UO-31 renal,1.94 µM
same,TGI,UO-31 renal,5.1 µM
same,GI50,EKVX NSCLC,5.07 µM
same,TGI,EKVX NSCLC,18.3 µM
same,GI50,MCF7 breast,1.69 µM
same,TGI,MCF7 breast,4.42 µM
same,GI50,HOP-92 NSCLC,6.32 µM
same,TGI,HOP-92 NSCLC,21.4 µM
same,GI50,OVCAR-8 ovarian,3.21 µM
same,TGI,OVCAR-8 ovarian,11.4 µM
same,GI50,CCRF-CEM leukemia,1.5 µM
same,TGI,CCRF-CEM leukemia,6.79 µM
same,GI50,SN12C renal,1.88 µM
same,TGI,SN12C renal,4.59 µM
same,GI50,BT-549 breast,6.4 µM
same,TGI,BT-549 breast,19.5 µM
same,GI50,786-0 renal,1.84 µM
same,TGI,786-0 renal,3.79 µM
same,GI50,DU-145 prostate,12 µM
same,TGI,DU-145 prostate,25 µM
same,GI50,PC-3 prostate,2.48 µM
same,TGI,PC-3 prostate,7.3 µM
same,GI50,SK-OV-3 ovarian,15.7 µM
same,TGI,SK-OV-3 ovarian,31.8 µM
same,GI50,M14 melanoma,3.14 µM
same,TGI,M14 melanoma,11.2 µM
same,GI50,CAKI-1 renal,4.65 µM
same,TGI,CAKI-1 renal,17.7 µM
same,GI50,T-47D breast,11 µM
same,TGI,T-47D breast,25.8 µM
same,GI50,HCT-15 colon,1.59 µM
same,TGI,HCT-15 colon,3.39 µM
same,GI50,IGROV1 ovarian,3.15 µM
same,TGI,IGROV1 ovarian,11.6 µM
same,GI50,SK-MEL-2 melanoma,15.5 µM
same,TGI,SK-MEL-2 melanoma,31.2 µM
same,GI50,RXF 393 renal,3.97 µM
same,TGI,RXF 393 renal,16.1 µM
same,GI50,SF-539 CNS,1.73 µM
same,TGI,SF-539 CNS,3.17 µM
same,GI50,HS 578T breast,15.9 µM
same,TGI,HS 578T breast,54.9 µM
same,GI50,MDA-MB-231 breast,2.06 µM
same,TGI,MDA-MB-231 breast,4.81 µM
same,GI50,TK-10 renal,4.69 µM
same,TGI,TK-10 renal,18.5 µM
same,GI50,KM12 colon,1.96 µM
same,TGI,KM12 colon,4.08 µM
same,GI50,NCI-H23 lung,2.23 µM
same,TGI,NCI-H23 lung,5.48 µM
same,GI50,SK-MEL-28 melanoma,2.63 µM
same,TGI,SK-MEL-28 melanoma,7.2 µM
same,GI50,ACHN renal,1.72 µM
same,TGI,ACHN renal,3.28 µM
same,GI50,LOX IMVI melanoma,1.42 µM
same,TGI,LOX IMVI melanoma,2.72 µM
same,GI50,HOP-62 NSCLC,7.34 µM
same,TGI,HOP-62 NSCLC,22.2 µM
same,GI50,OVCAR-5 ovarian,7.88 µM
same,TGI,OVCAR-5 ovarian,20.6 µM
same,GI50,A498 renal,13.9 µM
same,TGI,A498 renal,26.8 µM
same,GI50,RPMI-8226 leukemia,2.13 µM
same,TGI,RPMI-8226 leukemia,7.47 µM
same,GI50,SF-268 CNS,12 µM
same,TGI,SF-268 CNS,43.3 µM
same,GI50,MDA-MB-435,2.02 µM
same,TGI,MDA-MB-435,4.91 µM
same,GI50,OVCAR-4 ovarian,5.86 µM
same,TGI,OVCAR-4 ovarian,18.7 µM
same,GI50,NCI-H522 lung,1.9 µM
same,TGI,NCI-H522 lung,3.98 µM
same,GI50,HCC-2998 colon,1.98 µM
same,TGI,HCC-2998 colon,3.71 µM
same,GI50,SK-MEL-5 melanoma,5.52 µM
same,TGI,SK-MEL-5 melanoma,17.9 µM
same,GI50,SNB-19 CNS,3.07 µM
same,TGI,SNB-19 CNS,11.3 µM
same,GI50,OVCAR-3 ovarian,3.62 µM
same,TGI,OVCAR-3 ovarian,11.9 µM
same,GI50,HL-60(TB) leukemia,2.33 µM
same,TGI,HL-60(TB) leukemia,8.4 µM
same,GI50,NCI-H460 lung,3.41 µM
same,TGI,NCI-H460 lung,11.8 µM
same,GI50,K-562 leukemia,2.05 µM
same,TGI,K-562 leukemia,> 100 µM
same,GI50,NCI-H226 lung,8.55 µM
same,TGI,NCI-H226 lung,23.6 µM
same,GI50,MDA-MB-468 breast,1.66 µM
same,TGI,MDA-MB-468 breast,3.34 µM
same,GI50,HCT-116 colon,1.58 µM
same,TGI,HCT-116 colon,3.39 µM
same,GI50,SW-620 colon,1.81 µM
same,TGI,SW-620 colon,3.55 µM
same,GI50,MALME-3M melanoma,12.1 µM
same,TGI,MALME-3M melanoma,24.7 µM
same,GI50,SF-295 CNS,3.62 µM
same,TGI,SF-295 CNS,13.4 µM
same,GI50,U251 CNS,1.75 µM
same,TGI,U251 CNS,3.79 µM
